Test results taken from ChEMBL document CHEMBL1909294, “Translating clinical findings into knowledge in drug safety evaluation--drug induced liver injury prediction system (DILIps)” (PLoS Comput Biol, 2011).

Assays:
[1] = test system: Hepatotoxicity;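 as to HepSE bilirubinemia: bilirubinemia hepatic side effect score drawn from the DILIps training data, a prediction system for drug-induced liver injury; call rule not given here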;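 as to HepSE cholecystitis: Cholecystitis-related hepatic side effect score drawn from the DILIps (drug-induced liver injury prediction) training data set; call rule not given here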;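 as to HepSE cholelithiasis: hepatic side effect score for cholelithiasis, drawn from the DILIps training data for predicting drug-induced liver injury; call rule not given here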;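 as to HepSE cirrhosis: cirrhosis hepatic side effect score taken from the DILIps (drug-induced liver injury prediction) training set; call rule not given here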;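 as to HepSE elevated liver function tests: hepatic side effect score for raised liver function tests, as recorded in the DILIps training set used for predicting drug-induced liver injury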; as to HepSE hepatic failure: call rule not given here;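 as to HepSE hepatomegaly: hepatic side effect score for hepatomegaly, taken from the training set of the DILIps drug-induced liver injury prediction system; call rule not given here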
[2] = test system: Hepatotoxicity; remark: listed apart in the source;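 as to HepSE bilirubinemia: bilirubinemia hepatic side effect score drawn from the DILIps training data, a prediction system for drug-induced liver injury; call rule not given here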;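 as to HepSE cholecystitis: Cholecystitis-related hepatic side effect score drawn from the DILIps (drug-induced liver injury prediction) training data set; call rule not given here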;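 as to HepSE cholelithiasis: hepatic side effect score for cholelithiasis, drawn from the DILIps training data for predicting drug-induced liver injury; call rule not given here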;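 as to HepSE cirrhosis: cirrhosis hepatic side effect score taken from the DILIps (drug-induced liver injury prediction) training set; call rule not given here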;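 as to HepSE elevated liver function tests: hepatic side effect score for raised liver function tests, as recorded in the DILIps training set used for predicting drug-induced liver injury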; as to HepSE hepatic failure: call rule not given here
[3] = test system: Hepatotoxicity; remark: listed apart in the source;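 as to HepSE bilirubinemia: bilirubinemia hepatic side effect score drawn from the DILIps training data, a prediction system for drug-induced liver injury; call rule not given here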;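 as to HepSE cholecystitis: Cholecystitis-related hepatic side effect score drawn from the DILIps (drug-induced liver injury prediction) training data set; call rule not given here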;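 as to HepSE cholelithiasis: hepatic side effect score for cholelithiasis, drawn from the DILIps training data for predicting drug-induced liver injury; call rule not given here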;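 as to HepSE cirrhosis: cirrhosis hepatic side effect score taken from the DILIps (drug-induced liver injury prediction) training set; call rule not given here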;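 as to HepSE elevated liver function tests: hepatic side effect score for raised liver function tests, as recorded in the DILIps training set used for predicting drug-induced liver injury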; as to HepSE hepatic failure: call rule not given here
[4] = test system: Hepatotoxicity; remark: listed apart in the source;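 as to HepSE bilirubinemia: bilirubinemia hepatic side effect score drawn from the DILIps training data, a prediction system for drug-induced liver injury; call rule not given here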;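 as to HepSE cholecystitis: Cholecystitis-related hepatic side effect score drawn from the DILIps (drug-induced liver injury prediction) training data set; call rule not given here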;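 as to HepSE cholelithiasis: hepatic side effect score for cholelithiasis, drawn from the DILIps training data for predicting drug-induced liver injury; call rule not given here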;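 as to HepSE cirrhosis: cirrhosis hepatic side effect score taken from the DILIps (drug-induced liver injury prediction) training set; call rule not given here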;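 as to HepSE elevated liver function tests: hepatic side effect score for raised liver function tests, as recorded in the DILIps training set used for predicting drug-induced liver injury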; as to HepSE hepatic failure: call rule not given here
[5] = test system: Hepatotoxicity; remark: listed apart in the source; as to HepSE hepatic failure: call rule not given here
[6] = test system: Hepatotoxicity; remark: listed apart in the source; as to HepSE hepatic failure: call rule not given here
[7] = test system: Hepatotoxicity; remark: listed apart in the source
[8] = test system: Hepatotoxicity; remark: listed apart in the source
[9] = test system: Hepatotoxicity; remark: listed apart in the source
[10] = test system: Hepatotoxicity; remark: listed apart in the source
[11] = test system: Hepatotoxicity; remark: listed apart in the source
[12] = test system: Hepatotoxicity; remark: listed apart in the source
[13] = test system: Hepatotoxicity; remark: listed apart in the source
[14] = test system: Hepatotoxicity; remark: listed apart in the source

| Structure (SMILES) | HepSE_bilirubinemia [1] | HepSE_cholecystitis [2] | HepSE_cholelithiasis [3] | HepSE_cirrhosis [4] | HepSE_elevated liver function tests [5] | HepSE_hepatic failure [6] | HepSE_hepatic necrosis [7] | HepSE_hepatitis [8] | HepSE_hepatomegaly [9] | HepSE_jaundice [10] | HepSE_liver disease [11] | HepSE_liver fatty [12] | HepSE_liver function tests abnormal [13] | HepSE_Combined Scores [14] | further results |
| --- | --- | --- | --- | --- | --- | --- | --- | --- | --- | --- | --- | --- | --- | --- | --- |
| O=c1n(CCCN2CCN(c3cccc(Cl)c3)CC2)nc2ccccn12 [TRAZODONE] | 1 | 0 | 0 | 0 | 0 | 0 | 0 | 0 | 0 | 1 | 0 | 0 | 0 | 2 | – |
| CN1CCN(CCCN2c3ccccc3Sc3ccc(Cl)cc32)CC1 [PROCHLORPERAZINE] | 0 | 0 | 0 | 0 | 0 | 0 | 0 | 0 | 0 | 1 | 0 | 0 | 0 | 1 | – |
| CC(C)CN(C[C@@H](OP(=O)(O)O)[C@H](Cc1ccccc1)NC(=O)O[C@H]1CCOC1)S(=O)(=O)c1ccc(N)cc1 [FOSAMPRENAVIR] | 0 | 0 | 0 | 0 | 0 | 0 | 0 | 0 | 0 | 0 | 0 | 0 | 0 | 0 | – |
| CN(C)CCC=C1c2ccccc2COc2ccccc21 [DOXEPIN] | 0 | 0 | 0 | 0 | 0 | 0 | 0 | 0 | 0 | 1 | 0 | 0 | 0 | 1 | – |
| OC(CCN1CCCCC1)(c1ccccc1)C1CCCCC1 (stereo not drawn) [TRIHEXYPHENIDYL] | – | – | – | – | – | – | – | – | – | – | – | – | – | – | HepSE_bilirubinemia ([1]; Liver): 0; HepSE_cholecystitis ([2]; Liver): 0; HepSE_cholelithiasis ([3]; Liver): 0; HepSE_cirrhosis ([4]; Liver): 0; HepSE_elevated liver function tests ([5]; Liver): 0; HepSE_hepatic failure ([6]; Liver): 0; HepSE_hepatic necrosis ([7]; Liver): 0; HepSE_hepatitis ([8]; Liver): 0; HepSE_hepatomegaly ([9]; Liver): 0; HepSE_jaundice ([10]; Liver): 0; HepSE_liver disease ([11]; Liver): 0; HepSE_liver fatty ([12]; Liver): 0; HepSE_liver function tests abnormal ([13]; Liver): 0; HepSE_Combined Scores ([14]; Liver): 0 |
| Cc1ccsc1C(=CCCN1CCC[C@@H](C(=O)O)C1)c1sccc1C [TIAGABINE] | 0 | 1 | 1 | 0 | 0 | 0 | 0 | 0 | 1 | 0 | 0 | 0 | 1 | 4 | – |
| CO[C@H]1/C=C/O[C@@]2(C)Oc3c(C)c(O)c4c(O)c(c(/C=N/N5CCN(C)CC5)c(O)c4c3C2=O)NC(=O)/C(C)=C\C=C\[C@H](C)[C@H](O)[C@@H](C)[C@@H](O)[C@@H](C)[C@H](OC(C)=O)[C@@H]1C [RIFAMPIN] | 0 | 0 | 0 | 0 | 0 | 0 | 0 | 1 | 0 | 1 | 0 | 0 | 1 | 3 | – |
| CCCN[C@H]1CCc2nc(N)sc2C1 [PRAMIPEXOLE] | – | – | – | – | – | – | – | – | – | – | – | – | – | – | HepSE_bilirubinemia ([1]; Liver): 0; HepSE_cholecystitis ([2]; Liver): 1; HepSE_cholelithiasis ([3]; Liver): 1; HepSE_cirrhosis ([4]; Liver): 0; HepSE_elevated liver function tests ([5]; Liver): 0; HepSE_hepatic failure ([6]; Liver): 0; HepSE_hepatic necrosis ([7]; Liver): 0; HepSE_hepatitis ([8]; Liver): 0; HepSE_hepatomegaly ([9]; Liver): 0; HepSE_jaundice ([10]; Liver): 0; HepSE_liver disease ([11]; Liver): 0; HepSE_liver fatty ([12]; Liver): 0; HepSE_liver function tests abnormal ([13]; Liver): 0; HepSE_Combined Scores ([14]; Liver): 2 |
| CC#C[C@]1(O)CC[C@H]2[C@@H]3CCc4cc(O)ccc4[C@H]3CC[C@@]21C [ESTROGEN] | 0 | 0 | 0 | 0 | 0 | 0 | 0 | 0 | 0 | 1 | 0 | 0 | 0 | 1 | – |
| CN(N=O)C(=O)N[C@@H](C=O)[C@@H](O)[C@H](O)[C@H](O)CO [STREPTOZOCIN] | 0 | 0 | 0 | 0 | 0 | 0 | 0 | 0 | 0 | 0 | 0 | 0 | 0 | 0 | – |
| N[C@@H](C(=O)N[C@@H]1C(=O)N2C(C(=O)O)=C(Cl)CC[C@H]12)c1ccccc1 [LORACARBEF ANHYDROUS] | 0 | 0 | 0 | 0 | 0 | 0 | 0 | 0 | 0 | 1 | 0 | 0 | 0 | 1 | – |
| COc1nc(N)nc2c1ncn2[C@@H]1O[C@H](CO)[C@@H](O)[C@@H]1O [NELARABINE] | 0 | 0 | 0 | 0 | 0 | 0 | 0 | 0 | 0 | 0 | 0 | 0 | 0 | 0 | – |
| CCC[C@H](N[C@@H](C)C(=O)N1[C@H](C(=O)O)C[C@@H]2CCCC[C@@H]21)C(=O)OCC [PERINDOPRIL] | 0 | 0 | 0 | 0 | 0 | 1 | 0 | 1 | 0 | 1 | 0 | 0 | 0 | 3 | – |
| Nc1nc2ncc(CNc3ccc(C(=O)N[C@@H](CCC(=O)O)C(=O)O)cc3)nc2c(=O)[nH]1 [FOLIC ACID] | 0 | 0 | 0 | 0 | 0 | 0 | 0 | 0 | 0 | 0 | 0 | 0 | 0 | 0 | – |
| Clc1ccc(C(Cn2ccnc2)OCc2csc3c(Cl)cccc23)c(Cl)c1 (stereo not drawn) [SERTACONAZOLE] | 0 | 0 | 0 | 0 | 0 | 0 | 0 | 0 | 0 | 0 | 0 | 0 | 0 | 0 | – |
| CN(C)CCC(c1ccc(Cl)cc1)c1ccccn1 (stereo not drawn) [CHLORPHENIRAMINE] | 0 | 0 | 0 | 0 | 0 | 0 | 0 | 0 | 0 | 0 | 0 | 0 | 0 | 0 | – |
| [Ca+2].[H-].[H-] | 0 | 0 | 0 | 0 | 0 | 0 | 0 | 0 | 0 | 0 | 0 | 0 | 0 | 0 | – |
